The subject of experiment [1] is interferon regulatory factor (IRF) pathway in THP-1 dual cells. The experiment is described as follows: THP-1 Dual reporter assay, IRF pathway (luciferase). It counts as cell-based. To be noted: 18 h stimulation, luminescence, read-out: THP1 Dual EC50 (μM) IRF. How it is done:
(§1) Compounds of the present invention were tested for their activity using THP-1 dual cells (Invivogen, cat no. thpd-nfis) allowing for simultaneous study of NF-κB pathway and the interferon regulatory factor (IRF) pathway. THP-1 dual cells contain luciferase reporter gene under the control of an ISG54 (interferon-stimulated gene) minimal promoter in conjunction with five interferon-stimulated response elements and a secreted embryonic alkaline phosphatase reporter gene under the control an IFN (interferon)-β minimal promoter fused to five copies of the NF-κB consensus transcriptional response element with three copies of the c-Rel binding site. Following 18 h of stimulation with STING agonist, medium was collected and transferred onto fresh cell culture plate. To verify activity of the IRF pathway, luminescence activity was measured with standard laboratory plate reader immediately after addition 10 μl of the medium to 40 or 50 μl of luminescence reagent (Invivogen, cat. No. rep-qlc2). To verify activity of NF-κB pathway, 10 or 20 μl of the medium was mixed with 80 μl of a detection medium (Invivogen, cat. No. rep-qb2) and incubated for 1 or 2 hours at 37° C. in a humidified atmosphere containing 5% CO2. Next, absorbance at 630 or 655 nm was recorded using standard laboratory plate reader.
A general note: A reporter such as luciferase makes a cellular process visible.

Experiment [2] relates to NF-κB pathway in THP-1 dual cells. In words: THP-1 Dual reporter assay, NF-κB pathway (SEAP). Conditions: Homo sapiens, THP1-Dual; 18 h stimulation, absorbance at 630 or 655 nm; read-out: THP1 Dual EC50 (μM) NFkB. It counts as cell-based. As for the experimental part: as §1

Broadly, the EC50 is the concentration needed to bring the measured effect to its halfway point.

Where a name gives a salt, the structure may show the parent alone. Read-outs that look alike come from different tables or passages of the source.

Take `Cc1ccc(N2CCC[C@H](N(Cc3ccnc(C)c3)Cc3cn(C)c4cc(N5CC[C@@H](N)C(F)(F)C5)ccc4c3=O)C2)cn1` (single isomer, unassigned) [Example 50]: the EC50 in experiment [1] (Homo sapiens, THP1-Dual) is less than 1 µM; in experiment [2], less than 1 µM.

On to `Cc1ccc(N2CCC[C@H](N(Cc3ccnc(C)c3)Cc3cn(C4CC4)c4cc(N5CC[C@@H](N)C(F)(F)C5)c(F)cc4c3=O)C2)cn1.Cl` (single isomer, unassigned) [Example 56, 7-[(4R)-4-amino-3,3-difluoropiperidin-1-yl]-1-cyclopropyl-6-fluoro-3-({[(3S)-1-(6-methylpyridin-3-yl)piperidin-3-yl][(2-methylpyridin-4-yl)methyl]amino}methyl)-1,4-dihydroquinolin-4-one], for which the EC50 is less than 1 µM in experiment [1] (Homo sapiens, THP1-Dual) and less than 1 µM in experiment [2].

With `Cc1ccc(N2CCC[C@H](N(Cc3ccnc(C)c3)Cc3cn(C4CC4)c4cc(N5CC[C@H](N)C(F)(F)C5)c(F)cc4c3=O)C2)cn1.Cl` (single isomer, unassigned) [Example 57, 7-[(4S)-4-amino-3,3-difluoropiperidin-1-yl]-1-cyclopropyl-6-fluoro-3-({[(3S)-1-(6-methylpyridin-3-yl)piperidin-3-yl][(2-methylpyridin-4-yl)methyl]amino}methyl)-1,4-dihydroquinolin-4-one], the EC50 in experiment [1] (Homo sapiens, THP1-Dual) was less than 1 µM; in experiment [2], less than 1 µM.

As to `Cc1ccc(N2CCC[C@H](N(Cc3ccnc(C)c3)Cc3cn(C4CC4)c4cc(N5CCO[C@@H](CO)C5)c(F)cc4c3=O)C2)cn1` (single isomer, unassigned) [Example 72], the EC50 was less than 1 µM in experiment [1] (Homo sapiens, THP1-Dual) and less than 1 µM in experiment [2].

For the compound `Cc1ccc(N2CCC[C@H](N(Cc3ccnc(C)c3)Cc3cn(C4CC4)c4cc(N5CCO[C@H](CO)C5)c(F)cc4c3=O)C2)cn1` (single isomer, unassigned) [Example 73], the EC50 in experiment [1] (Homo sapiens, THP1-Dual) is less than 1 µM; in experiment [2], less than 1 µM.

As to `Cc1cc(CN(Cc2cn(C3CC3)c3cc(N4CCC(CO)C4)c(F)cc3c2=O)[C@H]2CCCN(c3cccnc3)C2)ccn1` (stereo in doubt) [Example 88, 1-cyclopropyl-6-fluoro-7-[(3R)-3-(hydroxymethyl)pyrrolidin-1-yl]-3-({[(2-methylpyridin-4-yl)methyl][(3S)-1-(pyridin-3-yl)piperidin-3-yl]amino}methyl)-1,4-dihydroquinolin-4-one hydrochloride], the EC50 in experiment [1] was less than 1 µM.

On to `C#CCOCCOCCOCCOCCOCCC(=O)Nc1ccc(N2CCC[C@H](N(Cc3ccnc(OC)c3)Cc3cn(C4CC4)c4cc(F)c(F)cc4c3=O)C2)cn1` [Example 4A, N-{5-[(3S)-3-{[(1-cyclopropyl-6,7-difluoro-4-oxo-1,4-dihydroquinolin-3-yl)methyl][(2-methoxypyridin-4-yl)methyl]amino}piperidin-1-yl]pyridin-2-yl}-4,7,10,13,16-pentaoxanonadec-18-ynamide], for which the EC50 in experiment [1] (Homo sapiens, THP1-Dual) is less than 1 µM; in experiment [2], less than 1 µM.

Turning to `Cc1ccc(N2CCC[C@H](N(Cc3ccnc(C)c3)Cc3cn(C4CC4)c4cc(OCCNC(=O)OCc5ccc(NC(=O)[C@H](CCCNC(N)=O)NC(=O)[C@@H](NC(=O)CCOCCOCCOCCN=[N+]=[N-])C(C)C)cc5)c(F)cc4c3=O)C2)cn1` [Example 10A, {4-[(2S)-2-[(2S)-2-(3-{2-[2-(2-azidoethoxy)ethoxy]ethoxy}propanamido)-3-methyl-butanamido]-5-(carbamoylamino)pentanamido]phenyl}methyl N-(2-{[1-cyclopropyl-6-fluoro-3-({[(3S)-1-(6-methylpyridin-3-yl)piperidin-3-yl][(2-methylpyridin-4-yl)methyl]amino}methyl)-4-oxo-1,4-dihydroquinolin-7-yl]oxy}ethyl)carbamate], the EC50 is more than 10 µM in experiment [1] (Homo sapiens, THP1-Dual) and more than 10 µM in experiment [2].

`Cc1ccc(N2CCC[C@H](N(Cc3ccnc(C)c3)Cc3cn(C4CC4)c4cc(OCCN(C)C(=O)COCCOCCN)c(F)cc4c3=O)C2)cn1` [Example 11A, 2-[2-(2-aminoethoxy)ethoxy]-N-(2-{[1-cyclopropyl-6-fluoro-3-({[(3S)-1-(6-methylpyridin-3-yl)piperidin-3-yl][(2-methylpyridin-4-yl)methyl]amino}methyl)-4-oxo-1,4-dihydroquinolin-7-yl]oxy}ethyl)-N-methylacetamide]: the EC50 in experiment [1] (Homo sapiens, THP1-Dual) lay within 1 to 10 µM; in experiment [2], 1 to 10 µM.

In the case of `Cc1ccc(N2CCC[C@H](N(Cc3ccnc(C)c3)Cc3cn(C4CC4)c4cc(OCCN(C)C(=O)CCOCCOCCOCCN)c(F)cc4c3=O)C2)cn1` [Example 11B, 3-{2-[2-(2-aminoethoxy)ethoxy]ethoxy}-N-(2-{[1-cyclopropyl-6-fluoro-3-({[(3S)-1-(6-methylpyridin-3-yl)piperidin-3-yl][(2-methylpyridin-4-yl)methyl]amino}methyl)-4-oxo-1,4-dihydroquinolin-7-yl]oxy}ethyl)-N-methylpropanamide], the concentration for a half-maximal effect (EC50) in experiment [1] (Homo sapiens, THP1-Dual) lay within 1 to 10 µM; in experiment [2], 1 to 10 µM.

For `Cc1ccc(N2CCC[C@H](N(Cc3ccnc(C)c3)Cc3cn(C4CC4)c4cc(OCCN(C)CCOCCOCCOCCOCCN)c(F)cc4c3=O)C2)cn1` [Example 11C, 7-[(1-amino-15-methyl-3,6,9,12-tetraoxa-15-azaheptadecan-17-yl)oxy]-1-cyclopropyl-6-fluoro-3-({[(3S)-1-(6-methylpyridin-3-yl)piperidin-3-yl][(2-methylpyridin-4-yl)methyl]amino}methyl)-1,4-dihydroquinolin-4-one], the EC50 is 1 to 10 µM in experiment [1] (Homo sapiens, THP1-Dual) and 1 to 10 µM in experiment [2].

Take `Cc1ccc(N2CCC[C@H](N(Cc3ccnc(C)c3)Cc3cn(C4CC4)c4cc(OCCN(C)C(=O)CCOCCOCCOCCOCCOCCOCCOCCN)c(F)cc4c3=O)C2)cn1` [Example 11D, 1-amino-N-(2-{[1-cyclopropyl-6-fluoro-3-({[(3S)-1-(6-methylpyridin-3-yl)piperidin-3-yl][(2-methylpyridin-4-yl)methyl]amino}methyl)-4-oxo-1,4-dihydroquinolin-7-yl]oxy}ethyl)-N-methyl-3,6,9,12,15,18,21-heptaoxatetracosan-24-amide]: the EC50 lay within 1 to 10 µM in experiment [1] (Homo sapiens, THP1-Dual) and 1 to 10 µM in experiment [2].

Consider `Cc1ccc(N2CCC[C@H](N(Cc3ccnc(C)c3)Cc3cn(C4CC4)c4cc(OCCN(C)C(=O)CCOCCOCCOCCOCCOCCOCCOCCC(=O)O)c(F)cc4c3=O)C2)cn1` [Example 11E, 1-[(2-{[1-cyclopropyl-6-fluoro-3-({[(3S)-1-(6-methylpyridin-3-yl)piperidin-3-yl][(2-methylpyridin-4-yl)methyl]amino}methyl)-4-oxo-1,4-dihydroquinolin-7-yl]oxy}ethyl)(methyl)carbamoyl]-3,6,9,12,15,18,21-heptaoxatetracosan-24-oic acid], for which the EC50 in experiment [1] (Homo sapiens, THP1-Dual) lay in the range of 1 to 10 µM; in experiment [2], 1 to 10 µM.

As for `C#CCOCCOCCOCCOCCOCCC(=O)Nc1ccc(COC(=O)N(C)CCOc2cc3c(cc2F)c(=O)c(CN(Cc2ccnc(C)c2)[C@H]2CCCN(c4ccc(C)nc4)C2)cn3C2CC2)cc1` [Example 11F, [4-(4,7,10,13,16-pentaoxanonadec-18-ynamido)phenyl]methyl N-(2-{[1-cyclopropyl-6-fluoro-3-({[(3S)-1-(6-methylpyridin-3-yl)piperidin-3-yl][(2-methylpyridin-4-yl)methyl]amino}methyl)-4-oxo-1,4-dihydroquinolin-7-yl]oxy}ethyl)-N-methylcarbamate], the EC50 in experiment [1] (Homo sapiens, THP1-Dual) is less than 1 µM; in experiment [2] it was less than 1 µM.

In the case of `Cc1ccc(N2CCC[C@H](N(Cc3ccnc(C)c3)Cc3cn(C4CC4)c4cc(OCCN(C)C(=O)CCOCCOCCOCCC(=O)O)c(F)cc4c3=O)C2)cn1` [Example 11G, 3-[2-(2-{2-[(2-{[1-cyclopropyl-6-fluoro-3-({[(3S)-1-(6-methylpyridin-3-yl)piperidin-3-yl][(2-methylpyridin-4-yl)methyl]amino}methyl)-4-oxo-1,4-dihydroquinolin-7-yl]oxy}ethyl)(methyl)carbamoyl]ethoxy}ethoxy)ethoxy]propanoic acid formate], the EC50 in experiment [1] (Homo sapiens, THP1-Dual) lay within 1 to 10 µM; in experiment [2] it was 1 to 10 µM.

Regarding `Cc1ccc(N2CCC[C@H](N(Cc3ccnc(C)c3)Cc3cn(C4CC4)c4cc(OCCN(C)C(=O)OCc5ccc(NC(=O)[C@H](CCCNC(N)=O)NC(=O)[C@@H](NC(=O)CCOCCOCCOCCN=[N+]=[N-])C(C)C)cc5)c(F)cc4c3=O)C2)cn1` [Example 11H, {4-[(2S)-2-[(2S)-2-(3-{2-[2-(2-azidoethoxy)ethoxy]ethoxy}propanamido)-3-methyl-butanamido]-5-(carbamoylamino)pentanamido]phenyl}methyl N-(2-{[1-cyclopropyl-6-fluoro-3-({[(3S)-1-(6-methylpyridin-3-yl)piperidin-3-yl][(2-methylpyridin-4-yl)methyl]amino}methyl)-4-oxo-1,4-dihydroquinolin-7-yl]oxy}ethyl)-N-methylcarbamate], the EC50 in experiment [1] (Homo sapiens, THP1-Dual) is more than 10 µM; in experiment [2], more than 10 µM.

(Values after US12643879B2, “Functionalized heterocyclic compounds as modulators of stimulator of interferon genes (STING)” (RYVU THERAPEUTICS S.A., priority 2019, dated 2026).)
